Measurements: patent publication US5700780A, “Antiviral peptide derivatives having a 2-oxoalkyl amino acid side chain” (Boehringer Ingelheim (Canada), Ltd., priority 1989, dated 1997)
Where a SMILES comes first, the peptide text is derived from it.

molecular target: HSV-1 ribonucleotide reductase (Human herpesvirus 1, UniProt P08543); assay: biochemical
Source text: Inhibition of Herpes Simplex Virus (HSV, type 1) Ribonucleotide Reductase
HSV-1 ribonucleotide reductase (partially purified) was obtained from quiescent BHK-21/C13 cells infected with strain F HSV-1 virus at 10 plaque forming units/cell as described by E. A. Cohen et al., J. Gen. Virol., 66, 733 (1985).
The procedure described by P. Gaudreau et al., J. Biol, Chem., 262, 12413 (1987), was employed. […] The number of units of the enzyme preparation used in each assay was constant, based on the specific activity of the enzyme preparation.

HSV-1 ribonucleotide reductase, sequence (P08543 whole entry): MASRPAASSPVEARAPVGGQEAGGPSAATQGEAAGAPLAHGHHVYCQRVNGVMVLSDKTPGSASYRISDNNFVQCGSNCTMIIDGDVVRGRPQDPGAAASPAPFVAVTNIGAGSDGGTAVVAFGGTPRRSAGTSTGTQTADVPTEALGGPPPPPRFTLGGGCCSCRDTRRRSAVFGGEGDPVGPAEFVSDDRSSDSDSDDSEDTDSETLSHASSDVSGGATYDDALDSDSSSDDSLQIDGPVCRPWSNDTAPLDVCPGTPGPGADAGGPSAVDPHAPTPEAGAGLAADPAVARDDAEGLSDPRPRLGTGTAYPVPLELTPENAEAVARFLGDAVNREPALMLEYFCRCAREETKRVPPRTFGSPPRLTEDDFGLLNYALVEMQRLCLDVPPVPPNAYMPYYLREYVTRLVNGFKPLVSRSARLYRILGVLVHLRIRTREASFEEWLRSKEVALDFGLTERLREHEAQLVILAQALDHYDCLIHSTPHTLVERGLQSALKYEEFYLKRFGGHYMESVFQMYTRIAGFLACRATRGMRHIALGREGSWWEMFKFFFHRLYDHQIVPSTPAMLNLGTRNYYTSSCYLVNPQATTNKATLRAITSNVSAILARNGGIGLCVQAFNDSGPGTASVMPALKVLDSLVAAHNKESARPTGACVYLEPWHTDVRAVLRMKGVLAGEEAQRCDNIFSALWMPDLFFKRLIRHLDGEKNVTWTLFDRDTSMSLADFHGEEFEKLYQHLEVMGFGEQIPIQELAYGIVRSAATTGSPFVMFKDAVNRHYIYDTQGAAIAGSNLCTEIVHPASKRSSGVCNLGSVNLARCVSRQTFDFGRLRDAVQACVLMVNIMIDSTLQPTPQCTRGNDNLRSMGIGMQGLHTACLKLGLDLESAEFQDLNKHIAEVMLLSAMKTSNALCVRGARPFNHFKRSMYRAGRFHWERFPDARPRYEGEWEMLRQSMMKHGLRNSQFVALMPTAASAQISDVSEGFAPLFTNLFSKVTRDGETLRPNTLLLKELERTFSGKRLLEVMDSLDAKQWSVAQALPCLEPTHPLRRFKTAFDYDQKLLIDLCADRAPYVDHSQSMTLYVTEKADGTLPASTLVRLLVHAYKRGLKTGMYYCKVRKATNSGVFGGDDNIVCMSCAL

| Compound | IC50 [µM] |
| --- | --- |
| CCCCCCCC(=O)C[C@H](NC(=O)[C@@H](NC(=O)C(CC)CC)[C@@H](C)CC)C(=O)N[C@@H](CC(=O)O)C(=O)N[C@@H](CC(C)C)C(=O)O [2-Ethylbutanoyl-Ile--NHCH(2-oxononyl)-CO--Asp--Leu--OH] | 24 |
| CCCCCCCCCCCC(=O)C[C@H](NC(=O)[C@@H](NC(=O)C(CC)CC)[C@@H](C)CC)C(=O)N[C@@H](CC(=O)O)C(=O)N[C@@H](CC(C)C)C(=O)O [2-Ethylbutanoyl-Ile--NHCH(2-oxotridecyl)-CO--Asp--Leu--OH] | 8.5 |
| CCC(CC)C(=O)N[C@H](C(=O)N[C@@H](CC(=O)C1CCCC1)C(=O)N[C@@H](CC(=O)O)C(=O)NCCC(C)(C)C)C(C)(C)C [2-Ethylbutanoyl-Tbg--NHCH(2-cyclopentyl-2-oxoethyl)-CO--Asp--NHCH2 CH2 C(CH3)3] | 23 |
| CCCCCC(=O)C[C@H](NC(=O)[C@@H](NC(=O)C(CC)CC)C(C)(C)C)C(=O)N[C@@H](CC(=O)O)C(=O)N[C@@H](CC(C)C)C(=O)O [2-Ethylbutanoyl-Tbg--NHCH(2-oxoheptyl)-CO--Asp--Leu--OH] | 7.5 |
| CCCCCCCC(=O)C[C@H](NC(=O)[C@@H](NC(=O)C(CC)CC)C(C)(C)C)C(=O)N[C@@H](CC(=O)O)C(=O)N[C@@H](CC(C)C)C(=O)O [2-Ethylbutanoyl-Tbg--NHCH(2-oxononyl)-CO--Asp--Leu--OH] | 4.5 |
| CCCCCCCC(=O)C[C@H](NC(=O)[C@@H](NC(=O)C(CC)CC)C(C)(C)C)C(=O)N[C@H](C(=O)N[C@@H](CC(C)C)C(=O)O)C(C)(C)C(=O)O [2-Ethylbutanoyl-Tbg--NHCH(2-oxononyl)-CO--NHCH[C(CH3)2 COOH]--CO--Leu--OH] | 1.2 |
| CC[C@H](C)[C@H](NC(=O)[C@H](C(C)C)N(C)C(=O)CCc1ccccc1)C(=O)N[C@@H](CC(=O)C1CCCC1)C(=O)N[C@@H](CC(=O)O)C(=O)N[C@@H](CC(C)C)C(=O)O [PhCH2 CH2 CO--N--Me--Val--Ile--NHCH(2-cyclopentyl-2-oxoethyl)-CO--Asp--Leu--OH] (HELM PEPTIDE1{[O=C(CCc1ccccc1)[*:2]].[meV].I.[O=C(C[C@H](N[*:1])C(=O)[*:2])C1CCCC1].D.L}$$$$V2.0) | 0.18 |
| CCCCCCCC(=O)C[C@H](NC(=O)[C@@H](NC(=O)[C@H](C(C)C)N(C)C(=O)CCc1ccccc1)[C@@H](C)CC)C(=O)N[C@@H](CC(=O)O)C(=O)N[C@@H](CC(C)C)C(=O)O [PhCH2 CH2 CO--N--Me--Val--Ile--NHCH(2-oxononyl)-CO--Asp--Leu--OH] (HELM PEPTIDE1{[O=C(CCc1ccccc1)[*:2]].[meV].I.[CCCCCCCC(=O)C[C@H](N[*:1])C(=O)[*:2]].D.L}$$$$V2.0) | 0.42 |
| CC[C@H](C)[C@H](NC(=O)[C@H](C(C)C)N(C)C(=O)CCc1ccccc1)C(=O)N[C@@H](CC(C)=O)C(=O)N[C@@H](CC(=O)O)C(=O)N[C@@H](CC(C)C)C(=O)O [PhCH2 CH2 CO--N--Me--Val--Ile--NHCH(2-oxopropyl)-CO--Asp--Leu--OH] (HELM PEPTIDE1{[O=C(CCc1ccccc1)[*:2]].[meV].I.[CC(=O)C[C@H](N[*:1])C(=O)[*:2]].D.L}$$$$V2.0) | 1.3 |
| CCCCCCCCCCCC(=O)C[C@H](NC(=O)[C@@H](NC(=O)[C@H](C(C)C)N(C)C(=O)CCc1ccccc1)[C@@H](C)CC)C(=O)N[C@@H](CC(=O)O)C(=O)N[C@@H](CC(C)C)C(N)=O [PhCH2 CH2 CO--N--Me--Val--Ile--NHCH(2-oxotridecyl)-CO--Asp--Leu--NH2] (HELM PEPTIDE1{[O=C(CCc1ccccc1)[*:2]].[meV].I.[CCCCCCCCCCCC(=O)C[C@H](N[*:1])C(=O)[*:2]].D.L.[am]}$$$$V2.0) | 6.3 |
